The subject of one assay is Pdk1/Akt/Foxo1. As to the kind of experiment: Western blot of Pdk1/Akt/Foxo1 in skeletal muscles of Lepr^db/db mice. It counts as in vivo, mouse. The following applies: 0.136 mg/kg ip daily, 52 days (FIG. 18). Here is the method: Male Lepr^db/db mice (C57BL/6J strain, purchased from The Jackson Laboratory) at 38 days of age were intraperitoneally injected daily with physiological saline ([…]) containing 0.2% DMSO or 0.136 mg of Compound #43 per kilogram body weight, diluted in the sterile physiological saline) for 52 days. After the treatment, gastrocnemius skeletal muscle samples were collected and stored at −80° C.
(§1) Frozen skeletal muscles were minced in sterile ice-old PBS containing complete proteinase and phosphatase inhibitors (Thermo-Fisher Scientific, Waltham, Mass.) and subjected to homogenization using a tissue homogenizer (Thermo-Fisher Scientific, Waltham, Mass.). These tissue homogenates were diluted in Themo-Fisher's RIPA buffer (1 part homogenate/2 part of RIPA buffer) containing complete proteinase/phosphatase inhibitors to extract the proteins. Proteins in the homogenates were extracted in RIPA buffer at 4° C. overnight. These overnight-extracted protein/tissue lysates were centrifuged at 12000×g for 30 min at 4° C., and the protein levels in the supernatant of these tissue lysates were determined using the Pierce Micro-BCA protein assay kit (Thermo Scientific-Piece Biotechnology, Rockford, Ill.) according to the manufacturer's protocol.
One hundred micrograms of skeletal muscle proteins were subjected to SDS-PAGE gel separation and then transferred to PVDF membranes, as described previously (Reddy et al. 2008 Science). Membranes were blocked in a phosphate-buffered saline (PBS) containing 5% (w/v) of bovine serum albumin (Sigma, St. Louis, Mo.) and incubated with specific primary antibodies followed by the incubation with HRP-conjugated anti-mouse or anti-rabbit secondary antibodies (1:5000 dilution, Cell Signaling Inc.). All primary antibodies were purchased from Cell Signaling Inc, except the antibodies against β-tubulin (LI-COR bioscience). Positive signals on the membrane blots were detected using Amersham's enhanced chemiluminescence Western Blotting Prime Detection reagents (GE Healthcare Lifescience, Pittsburgh, Pa.). Images of these luminescence signals on the membrane blots were captured using the LI-COR Odyssey Fc Image system (Lincoln, Nebr.). The same membrane blot was stripped and re-blotted with another antibody as described in the GE WB ECL-prime-detection protocol (GE healthcare Lifescience, Pittsburgh, Pa.). Protein band densities in the Western blots were determined using the NIH ImageJ software and then normalized by β-tubulin level in each sample. Data are presented as mean±SEM of 5 animal samples.
On the technique in general: Immunoblotting shows a protein as a band on a membrane.

The next assay has as its target T1, Insrβ (Mus musculus, UniProt P15208).
T1 construct: gastrocnemius skeletal muscle and liver samples were collected and stored at −80° C; from tissue; host or cells: gastrocnemius skeletal muscle (A22) and liver (A24) of Lepr db/db mice
As to the kind of experiment: Western blot of Insrβ phosphorylation in skeletal muscle of Lepr^db/db mice. It counts as in vivo. Conditions: 0.136 mg/kg ip daily. Here is the method: Male Lepr^db/db mice (C57BL/6J strain, purchased from The Jackson Laboratory) at postnatal day 38 were intraperitoneally injected daily with physiological saline ([…]) containing 0.2% DMSO, or 0.136 mg of Compound #43 per kilogram body weight, diluted in the sterile physiological saline) for 52 days. After the treatment, gastrocnemius skeletal muscle and liver samples were collected and stored at −80° C.
as §1, with “muscle and liver tissues” for “muscles”, “Themo-Fisher's premade” for “Themo-Fisher's”, “protocol. […]” for “protocol.”

T1 sequence (P15208 753-1372 limits assumed): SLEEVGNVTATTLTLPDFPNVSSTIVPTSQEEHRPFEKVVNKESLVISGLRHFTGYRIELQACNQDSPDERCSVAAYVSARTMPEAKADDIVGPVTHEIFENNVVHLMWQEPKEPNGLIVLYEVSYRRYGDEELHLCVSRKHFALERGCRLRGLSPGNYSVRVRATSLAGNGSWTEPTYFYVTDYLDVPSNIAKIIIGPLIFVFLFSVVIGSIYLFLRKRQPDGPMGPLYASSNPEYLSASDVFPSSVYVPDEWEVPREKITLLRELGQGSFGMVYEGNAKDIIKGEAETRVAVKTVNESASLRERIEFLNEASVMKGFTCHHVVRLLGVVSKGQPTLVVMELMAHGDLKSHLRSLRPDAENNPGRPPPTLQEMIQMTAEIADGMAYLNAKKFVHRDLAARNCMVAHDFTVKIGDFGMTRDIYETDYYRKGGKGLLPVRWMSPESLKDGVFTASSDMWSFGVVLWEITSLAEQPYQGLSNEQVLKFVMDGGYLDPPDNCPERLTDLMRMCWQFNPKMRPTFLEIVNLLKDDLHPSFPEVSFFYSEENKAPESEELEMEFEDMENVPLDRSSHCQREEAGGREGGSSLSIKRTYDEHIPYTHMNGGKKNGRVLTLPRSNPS
T1 sequence (P15208 28-748 partner limits assumed): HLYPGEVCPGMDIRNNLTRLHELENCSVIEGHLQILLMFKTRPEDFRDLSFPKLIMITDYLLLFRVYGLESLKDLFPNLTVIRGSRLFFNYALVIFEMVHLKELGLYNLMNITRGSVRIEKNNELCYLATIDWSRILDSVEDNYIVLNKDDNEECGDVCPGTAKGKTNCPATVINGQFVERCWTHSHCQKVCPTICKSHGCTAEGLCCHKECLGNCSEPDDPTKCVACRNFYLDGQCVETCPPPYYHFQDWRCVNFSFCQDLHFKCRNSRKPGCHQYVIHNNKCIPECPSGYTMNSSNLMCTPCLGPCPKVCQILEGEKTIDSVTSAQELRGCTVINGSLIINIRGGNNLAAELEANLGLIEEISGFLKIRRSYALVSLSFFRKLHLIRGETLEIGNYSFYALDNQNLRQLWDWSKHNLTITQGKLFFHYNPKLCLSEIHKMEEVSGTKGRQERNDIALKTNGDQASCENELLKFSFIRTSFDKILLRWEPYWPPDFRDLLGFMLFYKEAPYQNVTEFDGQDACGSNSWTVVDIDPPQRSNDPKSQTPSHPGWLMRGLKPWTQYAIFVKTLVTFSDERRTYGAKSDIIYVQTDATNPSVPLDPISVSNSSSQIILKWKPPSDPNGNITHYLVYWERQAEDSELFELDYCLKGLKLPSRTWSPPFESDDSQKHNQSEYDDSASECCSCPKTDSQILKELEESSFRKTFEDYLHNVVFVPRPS

For the molecule `C[Se]C[C@H]1O[C@@H](n2cnc3c(N)ncnc32)C(OC(C)=O)C1OC(C)=O` (stereo partly drawn) [Compound #43, Adenosine, 5′-Se-methyl-5′-selino-, 2′,3′-diacetate], in the assay on Pdk1/Akt/Foxo1, the “pAkt protein levels in skeletal muscle” value is recorded as “significantly elevated”; the “pFoxo1 protein levels in skeletal muscle” value is recorded as “significantly elevated”; the “total Akt and Foxo1 protein levels in skeletal muscle” value is on record as “no significant change”. Besides, in the assay on Pdk1/Akt/Foxo1 (P=0.11), the “pPdk1 protein levels in skeletal muscle” value was “approached statistical significance”. For the same molecule, the “increase of phosphorylated Insrβ (Tyrosine 1146) in skeletal muscle” value on Insrβ (52 days (FIG. 20B)) is listed as roughly 2.5 fold. Besides, the “total Insrβ protein levels in skeletal muscle” value on Insrβ (52 days (FIG. 20C)) is “no significant change of total Insrβ protein levels”.
